PMC9257445 (Journal of Pharmaceutical Analysis, 2021)

Molecular target: T1, tumor necrosis factor receptor type 1 (TNF-R1) (Homo sapiens, UniProt P19438)
T1 sequence (P19438 30-455): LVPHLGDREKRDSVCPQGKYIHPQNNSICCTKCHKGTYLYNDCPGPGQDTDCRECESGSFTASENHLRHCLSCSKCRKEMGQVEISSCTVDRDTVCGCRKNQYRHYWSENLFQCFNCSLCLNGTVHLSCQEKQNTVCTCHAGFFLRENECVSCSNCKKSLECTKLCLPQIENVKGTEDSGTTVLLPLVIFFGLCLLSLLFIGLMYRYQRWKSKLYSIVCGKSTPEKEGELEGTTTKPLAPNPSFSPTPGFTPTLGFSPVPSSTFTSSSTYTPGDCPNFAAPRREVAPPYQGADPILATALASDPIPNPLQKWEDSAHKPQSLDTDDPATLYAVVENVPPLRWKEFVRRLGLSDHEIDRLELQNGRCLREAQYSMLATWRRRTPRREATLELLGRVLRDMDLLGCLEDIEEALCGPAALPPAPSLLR
Assay: SPR
Format: binding

COc1ccc(C(C)=O)c(O)c1 [paeonol]
Kd: 11.8 µM
